In US4241083A, “Germicidal composition for agriculture and horticulture” (priority 1978, dated 1980):

What was measured:
Valsa ceratosperma = assay: Length of disease spots on cut apple branches immersed in germicide before inoculation (Ex. 16); format: in vivo; conditions: 25° C.
Experimental: Branches of Delicious apple (branch diameter: about 1 cm. thick) grown for 1-2 years were cut to 10 cm. length. The cut branches were dried in a low temperature chamber (3° C.) until the water content of the cut branches became 50%. The dried cut branches were immersed in an aqueous solution of ethyl 2-(2-hydroxyethylamino)-3-benzoylpropionate hydrochloride (500 ppm, 1000 ppm and 2500 ppm) for one minute and then dried.
Each cut branch was end bored by a white heated 8 mm diameter cork borer. Valsa ceratosperma, previously cultured for four days on a potato dextrose-agar culture medium, was introduced into the branch by inoculating the branch with the Valsa ceratosperma containing culture by means of the sterilized cork borer. The branches prepared in this way were placed on wet filter paper spread in a polyethylene tray. The tray was inserted into a polyethylene bag which was sealed and then the bag was put into a thermostat (25° C.) for various controlled times.
After removal from the thermostat, the length of disease spots on each branch was measured.
A similar experiment for comparison was carried out using Benomyl, i.e. methyl-1-(buthylcarbamoyl)-2-benzimidazole carbamate as the germicide. The results of the comparative experiment and also a control experiment, in which the dried cut branches were not immersed in germicide (blank), are also shown in Table 2.

Stemphylium lycopersici = assay: Growth of germs on potato dextrose-agar medium containing the compound (Ex. 7); format: cell-based; set-up: key: +++: extremely much growth; ++: much growth; +: a little growth; -: no growth; conditions: two weeks, 25° C.
Experimental: (§1) Ethyl 2-(2-hydroxyethylamino)-3-benzoylpropionate hydrochloride was added to potato dextrose-agar culture medium in the concentration indicated in Table 1 and the suspensions of various kinds of germs were dropped on the culture medium. After incubation of the germs for two weeks in thermostat (25° C.), the growing conditions were observed.
(§2) In Table 1, +++, ++, + and - represent "extremely much growth", "much growth", "a little growth" and "no growth" respectively.

[1] = test system: Colletotrichum lagenarium; assay: Growth of germs on potato dextrose-agar medium containing the compound (Ex. 9, germ of anthracnose on cucumbers); format: cell-based; set-up: key: +++: extremely much growth; ++: much growth; +: a little growth; -: no growth; conditions: two weeks, 25° C.
Experimental: as §1, §2
^1 Germ of anthracnose on cucumbers

Alternaria solani = assay: Growth of germs on potato dextrose-agar medium containing the compound (Ex. 6); format: cell-based; set-up: key: +++: extremely much growth; ++: much growth; +: a little growth; -: no growth; conditions: two weeks, 25° C.
Experimental: as §1, §2

[2] = test system: Colletotrichum lagenarium; assay: Prevention effect for anthracnose on cucumber (Ex. 18); format: in vivo; conditions: for Germicidal damage to seedlings: cucumber seedlings; for Number of disease spots per leaf / Percentage of leaves attacked with the disease / Prevention value per leaf (Perfect prevention = 100): sixth day after spraying
Excerpt: The prevention effect for anthracnose on cucumber was investigated in the following manner.
An aqueous solution of ethyl 2-(2-hydroxyethylamino)-3-benzoylpropionate hydrochloride (2500 ppm and 5000 ppm) was sprayed on cucumber seedlings (bifoliate age) of Tokiwa Hikari No. 3 (p type) variety which were planted in sections of two rows of three.
After air-drying the seedlings, a spore suspention of Colletotrichum lagenarium was inoculated on the test seedlings by means of a glass sprayer. The inoculated seedlings were kept at 20°-22° C. for four days in the inoculation box, and then allowed to stand in a glass chamber.
The number of disease spots of anthracnose that appeared on the cucumber leaves was measured on the sixth day after spraying the germicidal aqueous solution. The number of spots can be used to calculate a prevention value. Using the number of spots that appeared per control leaf as a reference, the relative number per hundred of spots prevented by the experimental germicide is the prevention value. Thus a perfectly preventive germicide has a prevention value of 100 and the control has a prevention value of 0.

Sclerotinia sclerotiorum = assay: Growth of germs on potato dextrose-agar medium containing the compound (Ex. 12); format: cell-based; set-up: key: +++: extremely much growth; ++: much growth; +: a little growth; -: no growth; conditions: two weeks, 25° C.
Experimental: as §1, §2

Cladosporium fulvum = assay: Growth of germs on potato dextrose-agar medium containing the compound (Ex. 5); format: cell-based; set-up: key: +++: extremely much growth; ++: much growth; +: a little growth; -: no growth; conditions: two weeks, 25° C.
Experimental: as §1, §2

[3] = test system: Colletotrichum lagenarium; assay: Growth of germs on potato dextrose-agar medium containing the compound (Ex. 10, germ of anthracnose on watermelons); format: cell-based; set-up: key: +++: extremely much growth; ++: much growth; +: a little growth; -: no growth; conditions: two weeks, 25° C.
Experimental: as §1, §2
^2 Germ of anthracnose on watermelons

[4] = test system: Fusarium oxysporum f. lycopersici; assay: Growth of germs on potato dextrose-agar medium containing the compound (Ex. 8); format: cell-based; set-up: key: +++: extremely much growth; ++: much growth; +: a little growth; -: no growth; conditions: two weeks, 25° C.
Experimental: as §1, §2

Cladosporium cucumerium = assay: Prevention effect for cucumber scab (Ex. 19); format: in vivo; conditions: for Germicidal damage to seedlings: cucumber seedlings; for Percentage of leaf area with disease spots / Percentage of leaves attacked with the disease / Prevention value per leaf (Perfect prevention = 100): eighth day after spraying
Excerpt: The prevention effect for cucumber scab was examined in the following manner.
An aqueous solution of ethyl 2-(2-hydroxyethylamino)-3-benzoylpropionate hydrochloride (2500 ppm or 5000 ppm) was sprayed on cucumber seedlings (bifoliate age) of Tokiwa Hikari No. 3 (p type) variety which were planted in sections in two rows of three.
After air-drying the seedlings, a spore suspention of Cladosporium cucumerium was inoculated on the test seedlings by means of a glass sprayer. The inoculated seedlings were kept at 18°-20° C. for four days in an inoculation box and then allowed to stand in a glass chamber.
The leaf area on which scab spots appeared was measured on the eighth day after spraying the aqueous germicide solution. The spotted area is expressed as a prevention value.

In the case of `CCOC(=O)C(CC(=O)c1ccccc1)NCCO.Cl` (stereo not drawn) [Ethyl 2-(2-hydroxyethylamino)-3-benzoylpropionate hydrochloride], the “Length of disease spot” value (Valsa ceratosperma; 500 ppm, after 3 days) is reported as 0 mm, the “Length of disease spot” value (Valsa ceratosperma; 500 ppm, after 5 days) is reported as 0 mm and the “Length of disease spot” value (Valsa ceratosperma; 500 ppm, after 7 days) is reported as 0.2 mm. The “Length of disease spot” value (Valsa ceratosperma; 1000 ppm, after 3 days) was 0 mm, the “Length of disease spot” value (Valsa ceratosperma; 1000 ppm, after 5 days) was 0 mm and the “Length of disease spot” value (Valsa ceratosperma; 1000 ppm, after 7 days) was 0 mm. The “Length of disease spot” value (Valsa ceratosperma; 2500 ppm, after 3 days) was 0 mm, the “Length of disease spot” value (Valsa ceratosperma; 2500 ppm, after 5 days) was 0 mm and the “Length of disease spot” value (Valsa ceratosperma; 2500 ppm, after 7 days) was 0 mm. For the same compound, the “growing conditions (growth of germ)” value (Stemphylium lycopersici; 10 ppm) was “+”, the “growing conditions (growth of germ)” value (Stemphylium lycopersici; 20 ppm) was “+” and the “growing conditions (growth of germ)” value (Stemphylium lycopersici; 50 ppm) was “-”. The “growing conditions (growth of germ)” value (Stemphylium lycopersici; 100 ppm) was “-”, the “growing conditions (growth of germ)” value (Stemphylium lycopersici; 200 ppm) was “-” and the “growing conditions (growth of germ)” value ([1]; 10 ppm) was “+++”. For the same compound, the “growing conditions (growth of germ)” value ([1]; 20 ppm) was “-”, the “growing conditions (growth of germ)” value ([1]; 50 ppm) was “-” and the “growing conditions (growth of germ)” value ([1]; 100 ppm) was “-”. The “growing conditions (growth of germ)” value ([1]; 200 ppm) was “-”, the “growing conditions (growth of germ)” value (Alternaria solani; 10 ppm) was “++” and the “growing conditions (growth of germ)” value (Alternaria solani; 20 ppm) was “-”. For the same compound, the “growing conditions (growth of germ)” value (Alternaria solani; 50 ppm) was “-”, the “growing conditions (growth of germ)” value (Alternaria solani; 100 ppm) was “-” and the “growing conditions (growth of germ)” value (Alternaria solani; 200 ppm) was “-”. The “Germicidal damage to seedlings” value ([2]; 2500 ppm) was “none”, the “Number of disease spots per leaf” value ([2]; 2500 ppm) was 2.83 and the “Percentage of leaves attacked with the disease” value (“Percentage of leaves attacked” below) ([2]; 2500 ppm) was 83.3%. For the same compound, the “Prevention value per leaf (Perfect prevention = 100)” value (“Prevention value per leaf” for short) ([2]; 2500 ppm) was 88.0, the “Germicidal damage to seedlings” value ([2]; 5000 ppm) was “none” and the “Number of disease spots per leaf” value ([2]; 5000 ppm) was 2.92. For the same compound, the “Percentage of leaves attacked” value ([2]; 5000 ppm) was 91.7%, the “Prevention value per leaf” value ([2]; 5000 ppm) was 87.6 and the “growing conditions (growth of germ)” value (Sclerotinia sclerotiorum; 10 ppm) was “+++”. The “growing conditions (growth of germ)” value (Sclerotinia sclerotiorum; 20 ppm) was “+++”, the “growing conditions (growth of germ)” value (Sclerotinia sclerotiorum; 50 ppm) was “-” and the “growing conditions (growth of germ)” value (Sclerotinia sclerotiorum; 100 ppm) was “-”. For the same compound, the “growing conditions (growth of germ)” value (Sclerotinia sclerotiorum; 200 ppm) was “-”, the “growing conditions (growth of germ)” value (Cladosporium fulvum; 10 ppm) was “++” and the “growing conditions (growth of germ)” value (Cladosporium fulvum; 20 ppm) was “-”. The “growing conditions (growth of germ)” value (Cladosporium fulvum; 50 ppm) was “-”, the “growing conditions (growth of germ)” value (Cladosporium fulvum; 100 ppm) was “-” and the “growing conditions (growth of germ)” value (Cladosporium fulvum; 200 ppm) was “-”. For the same compound, the “growing conditions (growth of germ)” value ([3]; 10 ppm) was “++”, the “growing conditions (growth of germ)” value ([3]; 20 ppm) was “++” and the “growing conditions (growth of germ)” value ([3]; 50 ppm) was “-”. For the same compound, the “growing conditions (growth of germ)” value ([3]; 100 ppm) was “-”, the “growing conditions (growth of germ)” value ([3]; 200 ppm) was “-” and the “growing conditions (growth of germ)” value ([4]; 10 ppm) was “+++”. The “growing conditions (growth of germ)” value ([4]; 20 ppm) was “++”, the “growing conditions (growth of germ)” value ([4]; 50 ppm) was “-” and the “growing conditions (growth of germ)” value ([4]; 100 ppm) was “-”. For the same compound, the “growing conditions (growth of germ)” value ([4]; 200 ppm) was “-”, the “Germicidal damage to seedlings” value (Cladosporium cucumerium; 2500 ppm) was “none” and the “Percentage of leaf area with disease spots” value (Cladosporium cucumerium; 2500 ppm) was 25.0%. The “Percentage of leaves attacked” value (Cladosporium cucumerium; 2500 ppm) was 100%, the “Prevention value per leaf” value (Cladosporium cucumerium; 2500 ppm) was 63.4 and the “Germicidal damage to seedlings” value (Cladosporium cucumerium; 5000 ppm) was “none”. The “Percentage of leaf area with disease spots” value (Cladosporium cucumerium; 5000 ppm) was 20.0%, the “Percentage of leaves attacked” value (Cladosporium cucumerium; 5000 ppm) was 100% and the “Prevention value per leaf” value (Cladosporium cucumerium; 5000 ppm) was 70.7.
